Reference: paper PMC9481151, “Discovery of new symmetrical and asymmetrical nitrile-containing 1,4-dihydropyridine derivatives as dual kinases and P-glycoprotein inhibitors: synthesis, in vitro assays, and in silico studies” (Journal of Enzyme Inhibition and Medicinal Chemistry, 2022)
≈ marks a conversion by molar mass, not a printed value. Read-outs that look alike come from different tables or passages of the source.

Assays:
E. coli = test: MIC, two-fold microbroth dilution method; conditions: Escherichia coli, read-out: MIC (µg/mL) E. coli
[1] = test system: G positive and G negative bacteria; test: Agar well diffusion method, summary; assay type: cell-based; conditions: reference drug, range over four strains
Description: As a control, DMSO solvent was employed.

S. aureus = test: MIC, two-fold microbroth dilution method; conditions: Staphylococcus aureus
Pseudomonas aeruginosa = test: Agar well diffusion method
B. subtilis = test: MIC, two-fold microbroth dilution method; conditions: Bacillus subtilis
P. aeruginosa = test: MIC, two-fold microbroth dilution method; conditions: Pseudomonas aeruginosa, read-out: MIC (µg/mL) P. aeruginosa
Escherichia coli = test: Agar well diffusion method
Bacillus subtilis = test: Agar well diffusion method
Staphylococcus aureus = test: Agar well diffusion method
[2] = test system: fungi (Candida albicans and Aspergillus flavus); test: Agar well diffusion method, summary; conditions: range over strains
Aspergillus flavus = test: Agar well diffusion method
A. flavus = test: MIC, two-fold microbroth dilution method; conditions: Aspergillus flavus, read-out: MIC (µg/mL) A. flavus
C. albicans = test: MIC, two-fold microbroth dilution method; conditions: Candida albicans, read-out: MIC (µg/mL) C. albicans
Candida albicans = test: Agar well diffusion method
L-type calcium channels = conditions: cited from earlier work

With `O=C(O)c1cn(C2CC2)c2cc(N3CCNCC3)c(F)cc2c1=O` [Ciprofloxacin, reference compound] the MIC (E. coli) was 0.5 µg/mL (≈ 1.51 µM), the DIZs against bacteria [1] was 23–26 mm and the MIC (S. aureus; 24 h, read-out: MIC, S. aureus) was 1 µg/mL (≈ 3.02 µM). For the same compound, the MIC (S. aureus; read-out: MIC (µg/mL) S. aureus) was 1 µg/mL (≈ 3.02 µM), the zone of inhibition at 1000 µg/mL (Pseudomonas aeruginosa; Pseudomonas aeruginosa, 24 h, read-out: Diameter of inhibition zone, P. aeruginosa) was 23 mm and the “% activity index, P. aeruginosa” value (Pseudomonas aeruginosa; relative to ciprofloxacin) was 100%. The MIC (B. subtilis; 24 h, read-out: MIC, B. subtilis) was 2 µg/mL (≈ 6.04 µM), the MIC (B. subtilis; read-out: MIC (µg/mL) B. subtilis) was 2 µg/mL (≈ 6.04 µM) and the MIC (P. aeruginosa) was 1 µg/mL (≈ 3.02 µM). For the same compound, the zone of inhibition at 1000 µg/mL (Escherichia coli; Escherichia coli, 24 h, read-out: Diameter of inhibition zone, E. coli) was 26 mm, the “% activity index, E. coli” value (Escherichia coli; relative to ciprofloxacin) was 100% and the zone of inhibition at 1000 µg/mL (Bacillus subtilis; Bacillus subtilis, 24 h, read-out: Diameter of inhibition zone, B. subtilis) was 23 mm. For the same compound, the “% activity index, B. subtilis” value (Bacillus subtilis; relative to ciprofloxacin) was 100%, the zone of inhibition at 1000 µg/mL (Staphylococcus aureus; Staphylococcus aureus, 24 h, read-out: Diameter of inhibition zone, S. aureus) was 24 mm and the “% activity index, S. aureus” value (Staphylococcus aureus; relative to ciprofloxacin) was 100%.

For `Clc1ccccc1C(c1ccccc1)(c1ccccc1)n1ccnc1` [Clotrimazole, reference compound], the DIZs against fungi [2] was 25–27 mm, the zone of inhibition at 1000 µg/mL (Aspergillus flavus; Aspergillus flavus, 24 h, read-out: Diameter of inhibition zone, A. flavus) was 25 mm and the “% activity index, A. flavus” value (Aspergillus flavus; relative to clotrimazole) was 100%. For the same compound, the MIC (A. flavus) was 1 µg/mL (≈ 2.9 µM), the MIC (C. albicans) was 2 µg/mL (≈ 5.8 µM) and the zone of inhibition at 1000 µg/mL (Candida albicans; Candida albicans, 24 h, read-out: Diameter of inhibition zone, C. albicans) was 27 mm. The “% activity index, C. albicans” value (Candida albicans; relative to clotrimazole) was 100%.

In the case of `COC(=O)C1=C(C)NC(C)=C(C(=O)OCCCN2CCC(c3ccccc3)(c3ccccc3)CC2)[C@@H]1c1cccc([N+](=O)[O-])c1` [Dexniguldipine, dexniguldipine], the “times less potent than (+)-niguldipine in its interaction with L-type calcium channels” value (L-type calcium channels) is listed as 40.
